# In PubChem BioAssay AID330 (DTP/NCI, 2004):
# Several values for one entry are separate records, joined by “and”; a condition that tells them apart may be missing. Equal entries are not always repeated. Toxic doses and inconclusive results are not listed.
# Tested on: P388 leukemia ip, CD2F1 mice, survival T/C
# Assay: NCI In Vivo Anticancer Drug Screen. Data for tumor model P388 Leukemia (intraperitoneal) in CD2F1 (CDF1) mice
# Settings: endpoint: median survival time, higher = longer survival
# Procedure, shortened: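 Mice carrying the transplanted tumor received test compound or vehicle. Survival was recorded in each group, and the value is the treated-group measurement divided by that of the vehicle-treated control group.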
# [1] = dose: 60.0 mg/kg/injection, schedule: Q01DX005 (ip), vehicle: saline
# [2] = dose: 120.0 mg/kg/injection, schedule: Q01DX005 (ip), vehicle: saline
# [3] = dose: 240.0 mg/kg/injection, schedule: Q01DX005 (ip), vehicle: saline
# [4] = dose: 50.0 mg/kg/injection, schedule: Q01DX005 (ip), vehicle: saline with Tween-80
# [5] = dose: 100.0 mg/kg/injection, schedule: Q01DX005 (ip), vehicle: saline with Tween-80
# [6] = dose: 200.0 mg/kg/injection, schedule: Q01DX005 (ip), vehicle: saline with Tween-80
# [7] = dose: 50.0 mg/kg/injection, schedule: Q01DX009 (ip), vehicle: Klucel (hydroxypropylcellulose) (HPC)
# [8] = dose: 100.0 mg/kg/injection, schedule: Q01DX009 (ip), vehicle: Klucel (hydroxypropylcellulose) (HPC)
# [9] = dose: 200.0 mg/kg/injection, schedule: Q01DX009 (ip), vehicle: Klucel (hydroxypropylcellulose) (HPC)
# [10] = dose: 60.0 mg/kg/injection, schedule: Q01DX005 (ip), vehicle: saline with Tween-80
# [11] = dose: 120.0 mg/kg/injection, schedule: Q01DX005 (ip), vehicle: saline with Tween-80
# [12] = dose: 240.0 mg/kg/injection, schedule: Q01DX005 (ip), vehicle: saline with Tween-80
# [13] = dose: 50.0 mg/kg/injection, schedule: Q01DX005 (ip), vehicle: saline
# [14] = dose: 100.0 mg/kg/injection, schedule: Q01DX005 (ip), vehicle: saline
# [15] = dose: 6.25 mg/kg/injection, schedule: Q01DX009 (ip), vehicle: water
# [16] = dose: 50.0 mg/kg/injection, schedule: Q01DX005 (ip), vehicle: Klucel (hydroxypropylcellulose) (HPC)
# [17] = dose: 100.0 mg/kg/injection, schedule: Q01DX005 (ip), vehicle: Klucel (hydroxypropylcellulose) (HPC)
# [18] = dose: 200.0 mg/kg/injection, schedule: Q01DX005 (ip), vehicle: Klucel (hydroxypropylcellulose) (HPC)
# [19] = dose: 50.0 mg/kg/injection, schedule: Q01DX009 (ip), vehicle: saline
# [20] = dose: 100.0 mg/kg/injection, schedule: Q01DX009 (ip), vehicle: saline
# [21] = dose: 200.0 mg/kg/injection, schedule: Q01DX009 (ip), vehicle: saline
# [22] = dose: 100.0 mg/kg/injection, schedule: Q04DX003 (ip), vehicle: saline with Tween-80
smiles,measurement,setting,value
C[N+]12CCO[B-]1(c1ccccc1)OCC2 (stereo not given),T/C,[1],108 % of control
same,T/C,[2],100 % of control
same,T/C,[3],100 % of control
N#CCCN(CCC#N)Cc1c(O)c(O)c(CN(CCC#N)CCC#N)c2ccccc12,T/C,[4],102 % of control and 105 % of control
same,T/C,[5],115 % of control and 118 % of control
same,T/C,[6],122 % of control and 124 % of control
N#C/C(=C/c1ccc(Cl)cc1)c1ccc(Cl)cc1,T/C,[7],102 % of control
same,T/C,[8],110 % of control
same,T/C,[9],102 % of control
CC1=CC(C)(C)NN1C1=NS(=O)(=O)c2ccccc2N1C,T/C,[10],101 % of control
same,T/C,[11],97 % of control
same,T/C,[12],101 % of control
COC(=O)C(=O)C1(c2ccccc2)C(=O)C(c2ccccc2)=CC1O (stereo not given),T/C,"dose: 60.0 mg/kg/injection, schedule: Q01DX005 (ip), vehicle: saline + Tween-80 + alcohol",104 % of control
same,T/C,"dose: 120.0 mg/kg/injection, schedule: Q01DX005 (ip), vehicle: saline + Tween-80 + alcohol",101 % of control
same,T/C,"dose: 240.0 mg/kg/injection, schedule: Q01DX005 (ip), vehicle: saline + Tween-80 + alcohol",100 % of control
CCCN(CCNc1cc(OC)cc2cccnc12)C(C)CC (stereo not given),T/C,[13],107 % of control
same,T/C,[14],92 % of control
CN(C)CC1CCC2=C(C1=O)C(c1ccc(Cl)c(Cl)c1)C1=C(CCC(CN(C)C)C1=O)O2 (stereo not given),T/C,"dose: 60.0 mg/kg/injection, schedule: Q01DX005 (ip), vehicle: suspension in saline",100 % of control
same,T/C,"dose: 120.0 mg/kg/injection, schedule: Q01DX005 (ip), vehicle: suspension in saline",106 % of control
same,T/C,"dose: 240.0 mg/kg/injection, schedule: Q01DX005 (ip), vehicle: suspension in saline",99 % of control
COc1ccc(-c2nccc3cc(OC)c(OC)cc23)cc1OC,T/C,[15],100 % of control
same,T/C,"dose: 12.5 mg/kg/injection, schedule: Q01DX009 (ip), vehicle: water",103 % of control
same,T/C,"dose: 25.0 mg/kg/injection, schedule: Q01DX009 (ip), vehicle: water",106 % of control
same,T/C,"dose: 50.0 mg/kg/injection, schedule: Q01DX009 (ip), vehicle: water",118 % of control
CC(C)(C)c1cc2c(O)c(c1)Cc1cc(C(C)(C)C)cc(c1O)Cc1cc(C(C)(C)C)cc(c1O)Cc1cc(C(C)(C)C)cc(c1O)Cc1cc(C(C)(C)C)cc(c1O)Cc1cc(C(C)(C)C)cc(c1O)C2,T/C,[16],99 % of control
same,T/C,[17],92 % of control
same,T/C,[18],92 % of control
CCOC(=O)NC(=S)C1=C(N2CCOCC2)CCC1,T/C,[7],106 % of control
same,T/C,[8],122 % of control
same,T/C,[9],97 % of control
CS(=O)(=O)O,T/C,[19],100 % of control
same,T/C,[20],110 % of control
same,T/C,[21],108 % of control
CCC(C)C(=O)OC1CC2(C)C(c3ccoc3)OC(=O)CC23OC2(C)OC34C(OC(=O)C(C)C)C3(O)C(OC(=O)C5(C)OC5C)C5(C)CC3(O)C(C)(C5CC(=O)OC)C14O2 (stereo not given),T/C,"dose: 25.0 mg/kg/injection, schedule: Q01DX009 (ip), vehicle: Klucel (hydroxypropylcellulose) (HPC)",93 % of control
same,T/C,[7],104 % of control
same,T/C,[8],102 % of control
same,T/C,[9],99 % of control
CC(C)=CCCC(C)=C(C#N)C#N,T/C,[22],100 % of control
C/C(=N/N=C(N)N)c1ccc(NC(=O)Nc2ccc(/C(C)=N/N=C(N)N)cc2)cc1,T/C,[15],151 % of control
same,T/C,[22],150 % of control
same,T/C,"dose: 150.0 mg/kg/injection, schedule: Q04DX003 (ip), vehicle: saline with Tween-80",118 % of control
Nc1nnc2nc(CC(=O)Cc3ccccc3)c(CC(=O)Cc3ccccc3)nn12,T/C,[1],101 % of control
same,T/C,[2],100 % of control
same,T/C,[3],100 % of control
S=C(N/N=C/c1ccc2c(c1)OCO2)NC1CCCCC1,T/C,[7],111 % of control
same,T/C,[8],111 % of control
same,T/C,[9],116 % of control
Cc1ccc(Cl)cc1NS(=O)(=O)c1ccc2ccccc2c1,T/C,[22],100 % of control
same,T/C,"dose: 200.0 mg/kg/injection, schedule: Q04DX003 (ip), vehicle: saline with Tween-80",109 % of control
same,T/C,"dose: 400.0 mg/kg/injection, schedule: Q04DX003 (ip), vehicle: saline with Tween-80",104 % of control
COc1cc(/C=C2\N=C(c3cc(OC)c(OC)c(OC)c3)OC2=O)ccc1O,T/C,"dose: 50.0 mg/kg/injection, schedule: Q01DX009 (ip), vehicle: saline with Tween-80",91 % of control
same,T/C,"dose: 100.0 mg/kg/injection, schedule: Q01DX009 (ip), vehicle: saline with Tween-80",95 % of control
same,T/C,"dose: 200.0 mg/kg/injection, schedule: Q01DX009 (ip), vehicle: saline with Tween-80",105 % of control
O=C1CSc2nc3c(Cl)cc(Cl)cc3c(=O)n21,T/C,[4],108 % of control
same,T/C,[5],100 % of control
same,T/C,[6],105 % of control
COc1ccc(C2CC(=O)N(CC(=O)O)C(=O)C2)cc1,T/C,"dose: 100.0 mg/kg/injection, schedule: Q04DX003 (ip), vehicle: suspension in saline",103 % of control
same,T/C,"dose: 200.0 mg/kg/injection, schedule: Q04DX003 (ip), vehicle: suspension in saline",100 % of control
same,T/C,"dose: 400.0 mg/kg/injection, schedule: Q04DX003 (ip), vehicle: suspension in saline",99 % of control
O=C(Oc1ccc[nH]c1=O)c1ccc([N+](=O)[O-])cc1,T/C,"dose: 12.5 mg/kg/injection, schedule: Q01DX009 (ip), vehicle: saline",106 % of control and 110 % of control
same,T/C,"dose: 25.0 mg/kg/injection, schedule: Q01DX009 (ip), vehicle: saline",101 % of control and 110 % of control
same,T/C,[19],102 % of control and 103 % of control and 118 % of control
same,T/C,[20],105 % of control and 118 % of control
same,T/C,[21],100 % of control and 110 % of control and 91 % of control
same,T/C,"dose: 400.0 mg/kg/injection, schedule: Q01DX009 (ip), vehicle: saline",101 % of control and 110 % of control
CCCCC(NC(=O)C(Cl)Cl)C(=O)O (stereo not given),T/C,[16],94 % of control
same,T/C,[17],98 % of control
same,T/C,[18],88 % of control
Cc1cc2c(cc1N)C(C)C1(CCC(=O)N2Cc2ccccc2)OCCO1 (stereo not given),T/C,[4],96 % of control
same,T/C,[5],99 % of control
same,T/C,[6],93 % of control
Clc1ccccc1CN1COc2c(ccc3cccnc23)C1,T/C,"dose: 100.0 mg/kg/injection, schedule: Q04DX003 (ip), vehicle: Klucel (hydroxypropylcellulose) (HPC)",103 % of control
same,T/C,"dose: 200.0 mg/kg/injection, schedule: Q04DX003 (ip), vehicle: Klucel (hydroxypropylcellulose) (HPC)",100 % of control
same,T/C,"dose: 400.0 mg/kg/injection, schedule: Q04DX003 (ip), vehicle: Klucel (hydroxypropylcellulose) (HPC)",100 % of control
CC(C)NCc1ccccc1Sc1ccccc1,T/C,"dose: 25.0 mg/kg/injection, schedule: Q01DX001 (ip), vehicle: saline with Tween-80",96 % of control
same,T/C,"dose: 50.0 mg/kg/injection, schedule: Q01DX001 (ip), vehicle: saline with Tween-80",104 % of control
same,T/C,"dose: 100.0 mg/kg/injection, schedule: Q01DX001 (ip), vehicle: saline with Tween-80",95 % of control
C=Cn1c([N+](=O)[O-])cnc1/C=C/c1ccc(C(=O)OCCN(CC)CC)cc1,T/C,"dose: 100.0 mg/kg/injection, schedule: Q04DX002 (ip), vehicle: Klucel (hydroxypropylcellulose) (HPC)",99 % of control
same,T/C,"dose: 200.0 mg/kg/injection, schedule: Q04DX002 (ip), vehicle: Klucel (hydroxypropylcellulose) (HPC)",103 % of control
CCCCCCOC(=O)c1ccccc1OP(=O)(N(C)C)N(C)C,T/C,[13],98 % of control
same,T/C,[14],101 % of control
O=C(Nc1ccccc1C(=O)Nc1nccs1)c1ccccc1,T/C,[10],86 % of control
same,T/C,[11],93 % of control
same,T/C,[12],98 % of control
C[N+]1(Cc2ccccc2)CCC(O)(C(=O)c2ccccc2)CC1 (stereo not given),T/C,"dose: 15.0 mg/kg/injection, schedule: Q01DX005 (ip), vehicle: saline with Tween-80",98 % of control
same,T/C,"dose: 30.0 mg/kg/injection, schedule: Q01DX005 (ip), vehicle: saline with Tween-80",100 % of control
same,T/C,[10],104 % of control and 86 % of control
COc1cc2c(cc1O)CCCCC2,T/C,"dose: 100.0 mg/kg/injection, schedule: Q01DX009 (sc), vehicle: olive oil, sesame oil, peanut oil",101 % of control
same,T/C,"dose: 200.0 mg/kg/injection, schedule: Q01DX009 (sc), vehicle: olive oil, sesame oil, peanut oil",101 % of control
same,T/C,"dose: 400.0 mg/kg/injection, schedule: Q01DX009 (sc), vehicle: olive oil, sesame oil, peanut oil",104 % of control
